Where a name gives a salt, the structure may show the parent alone.
Experiments:
PDE10A (human) = biological target: T1, PDE10A (human) (Homo sapiens, UniProt Q9Y233); assay: Measurement of PDE activity (HTRF cAMP kit), human PDE10A; assay type: biochemical; settings: PDE enzymatic reaction, substrate 20 nM for PDE10, 60 minutes at 29 C
T1 construct: purchased BPS Bioscience
In short: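 HTRF detection of cAMP left after hydrolysis, expressed as percent of uninhibited control to derive IC50. Reaction: serially diluted inhibitor mixed with recombinant enzyme, started with 20 nM cAMP, 60 min at 29 °C in Tris-HCl pH 7.5 buffer containing MgCl2 and BSA.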

[1] = Determination of the microsomal half-life, rat liver microsomes; settings: rat, liver microsomes, pH 7.4
[2] = Determination of the microsomal half-life, human liver microsomes; settings: human, liver microsomes, pH 7.4

T1 sequence (Q9Y233 whole entry): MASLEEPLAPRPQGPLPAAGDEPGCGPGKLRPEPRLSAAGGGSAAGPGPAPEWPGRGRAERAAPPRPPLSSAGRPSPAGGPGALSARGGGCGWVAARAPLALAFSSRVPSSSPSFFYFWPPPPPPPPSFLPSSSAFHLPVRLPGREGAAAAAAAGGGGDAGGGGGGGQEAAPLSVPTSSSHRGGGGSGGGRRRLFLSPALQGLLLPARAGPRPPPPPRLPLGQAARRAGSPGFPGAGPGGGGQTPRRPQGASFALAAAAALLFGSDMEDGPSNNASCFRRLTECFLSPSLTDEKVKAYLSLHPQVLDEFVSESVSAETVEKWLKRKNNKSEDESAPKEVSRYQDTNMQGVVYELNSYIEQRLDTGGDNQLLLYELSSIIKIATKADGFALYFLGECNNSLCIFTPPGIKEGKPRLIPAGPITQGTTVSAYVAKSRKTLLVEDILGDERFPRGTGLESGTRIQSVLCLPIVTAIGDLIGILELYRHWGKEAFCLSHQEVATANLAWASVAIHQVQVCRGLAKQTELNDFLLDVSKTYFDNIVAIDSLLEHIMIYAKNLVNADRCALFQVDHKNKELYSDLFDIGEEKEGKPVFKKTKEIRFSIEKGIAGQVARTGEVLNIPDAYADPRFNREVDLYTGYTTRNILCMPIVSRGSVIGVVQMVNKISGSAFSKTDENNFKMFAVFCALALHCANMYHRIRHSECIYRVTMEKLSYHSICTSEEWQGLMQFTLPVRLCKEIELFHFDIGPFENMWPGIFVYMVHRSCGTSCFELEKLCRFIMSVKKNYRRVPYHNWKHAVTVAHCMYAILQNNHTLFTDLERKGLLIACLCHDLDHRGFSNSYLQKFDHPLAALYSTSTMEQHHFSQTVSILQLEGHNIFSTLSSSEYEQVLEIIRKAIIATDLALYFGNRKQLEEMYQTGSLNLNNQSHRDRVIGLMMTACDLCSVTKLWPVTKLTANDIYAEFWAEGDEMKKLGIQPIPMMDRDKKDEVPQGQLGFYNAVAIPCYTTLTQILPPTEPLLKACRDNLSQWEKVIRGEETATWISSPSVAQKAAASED

Compound `O=C1c2c(cncc2-c2ccncc2)CN1CCc1ccc2ccccc2n1` [Example 2, 7-Pyridin-4-yl-2-(2-quinolin-2-yl-ethyl)-2,3-dihydro-pyrrolo[3,4-c]pyridin-1-one] has an IC50 (PDE10A (human)) of under 100 nM, a microsomal CLint at 0.5 μM [1] of 100 to 220 µL/min/mg and a microsomal CLint at 0.5 μM [2] of 100 to 220 µL/min/mg.
Compound `O=C1c2c(-c3ccncc3)ccnc2CN1CCc1ccc2ccccc2n1` [Example 3, 4-Pyridin-4-yl-6-(2-quinolin-2-yl-ethyl)-6,7-dihydro-pyrrolo[3,4-b]pyridin-5-one] has an IC50 (PDE10A (human)) of under 100 nM, a microsomal CLint at 0.5 μM [1] of 100 to 220 µL/min/mg and a microsomal CLint at 0.5 μM [2] of under 100 µL/min/mg.
With `O=C1c2c(-c3ccncc3)cccc2C(F)(F)N1CCc1ccc2ccccc2n1` [Example 4, 3,3-Difluoro-7-pyridin-4-yl-2-(2-quinolin-2-yl-ethyl)-2,3-dihydro-isoindol-1-one] the IC50 (PDE10A (human)) was under 100 nM, the microsomal CLint at 0.5 μM [1] was over 220 µL/min/mg and the microsomal CLint at 0.5 μM [2] was 100 to 220 µL/min/mg.
For `O=C1c2c(cccc2-c2ccc3[nH]cnc(=O)c3c2)CN1CCc1ccc2ccccc2n1` [Example 7, 6-[3-oxo-2-(2-quinolin-2-yl-ethyl)-2,3-dihydro-1H-isoindol-4-yl]-1H-quinazolin-4-one trifluoroacetate], the IC50 (PDE10A (human)) was 200 to 500 nM, the microsomal CLint at 0.5 μM [1] was 100 to 220 µL/min/mg and the microsomal CLint at 0.5 μM [2] was 100 to 220 µL/min/mg.
In the case of `Cn1cnc2ccc(-c3cccc4c3C(=O)N(CCc3ccc5ccccc5n3)C4)cc21` [Example 8, 7-(3-Methyl-3H-benzoimidazol-5-yl)-2-(2-quinolin-2-yl-ethyl)-2,3-dihydro-isoindol-1-one trifluoroacetate], the IC50 (PDE10A (human)) is reported as 200 to 500 nM, the microsomal CLint at 0.5 μM [1] is reported as 100 to 220 µL/min/mg and the microsomal CLint at 0.5 μM [2] is reported as over 220 µL/min/mg.
Compound `O=C1c2c(cccc2-c2ccc3[nH]c(=O)[nH]c3c2)CN1CCc1ccc2ccccc2n1` [Example 9, 5-[3-oxo-2-(2-quinolin-2-yl-ethyl)-2,3-dihydro-1H-isoindol-4-yl]-1,3-dihydro-benzoimidazol-2-one trifluoroacetate] has an IC50 (PDE10A (human)) of under 100 nM, a microsomal CLint at 0.5 μM [1] of 100 to 220 µL/min/mg and a microsomal CLint at 0.5 μM [2] of under 100 µL/min/mg.
Compound `O=C1c2c(cccc2-c2ccc3nn[nH]c3c2)CN1CCc1ccc2ccccc2n1` [Example 10, 7-(3H-Benzotriazol-5-yl)-2-(2-quinolin-2-yl-ethyl)-2,3-dihydro-isoindol-1-one trifluoroacetate] has an IC50 (PDE10A (human)) of under 100 nM, a microsomal CLint at 0.5 μM [1] of under 100 µL/min/mg and a microsomal CLint at 0.5 μM [2] of 100 to 220 µL/min/mg.
`O=C1c2c(cccc2-c2ccc3nc[nH]c3c2)CN1CCc1ccc2ccccc2n1` [Example 11, 7-(3H-Benzoimidazol-5-yl)-2-(2-quinolin-2-yl-ethyl)-2,3-dihydro-isoindol-1-one trifluoroacetate] showed an IC50 (PDE10A (human)) of under 100 nM, a microsomal CLint at 0.5 μM [1] of under 100 µL/min/mg and a microsomal CLint at 0.5 μM [2] of under 100 µL/min/mg.
For `Nc1ncc2cc(-c3cccc4c3C(=O)N(CCc3ccc5ccccc5n3)C4)ccc2n1` [Example 12, 7-(2-Amino-quinazolin-6-yl)-2-(2-quinolin-2-yl-ethyl)-2,3-dihydro-isoindol-1-one], the IC50 (PDE10A (human)) was under 100 nM, the microsomal CLint at 0.5 μM [1] was 100 to 220 µL/min/mg and the microsomal CLint at 0.5 μM [2] was 100 to 220 µL/min/mg.
Work on `O=C1c2c(ccc(F)c2-c2ccncc2)CN1CCc1ccc2ccccc2n1` [Example 14, 6-Fluoro-7-pyridin-4-yl-2-(2-quinolin-2-yl-ethyl)-2,3-dihydro-isoindol-1-one] yielded an IC50 (PDE10A (human)) of under 100 nM, a microsomal CLint at 0.5 μM [1] of 100 to 220 µL/min/mg and a microsomal CLint at 0.5 μM [2] of 100 to 220 µL/min/mg.
`O=C1c2c(cc(F)cc2-c2ccncc2)CN1CCc1ccc2ccccc2n1` [Example 15, 5-Fluoro-7-pyridin-4-yl-2-(2-quinolin-2-yl-ethyl)-2,3-dihydro-isoindol-1-one] gave an IC50 (PDE10A (human)) of under 100 nM, a microsomal CLint at 0.5 μM [1] of over 220 µL/min/mg and a microsomal CLint at 0.5 μM [2] of 100 to 220 µL/min/mg.
`O=C1c2c(cccc2-c2ccncc2)CN1CCc1ccc2sccc2n1` [Example 19, 7-Pyridin-4-yl-2-(2-thieno[3,2-b]pyridin-5-yl-ethyl)-2,3-dihydro-isoindol-1-one] gave an IC50 (PDE10A (human)) of under 100 nM, a microsomal CLint at 0.5 μM [1] of 100 to 220 µL/min/mg and a microsomal CLint at 0.5 μM [2] of over 220 µL/min/mg.
With `CN1CCN(c2ccnc3c2C(=O)N(CCc2nc4ccccc4n2C)C3)CC1` [Example 226, 6-[2-(1-Methyl-1H-benzoimidazol-2-yl)-ethyl]-4-(4-methyl-piperazin-1-yl)-6,7-dihydro-pyrrolo[3,4-b]pyridin-5-one trifluoroacetate] the microsomal CLint at 0.5 μM [1] was under 100 µL/min/mg and the microsomal CLint at 0.5 μM [2] was under 100 µL/min/mg.
In the case of `CC1CN(c2cccc3c2C(=O)N(CCc2ccc4ccccc4n2)C3)CCO1` (centres unmarked) [Example 228, 7-(2-Methyl-morpholin-4-yl)-2-(2-quinolin-2-yl-ethyl)-2,3-dihydro-isoindol-1-one trifluoroacetate], the microsomal CLint at 0.5 μM [1] is reported as 100 to 220 µL/min/mg and the microsomal CLint at 0.5 μM [2] is reported as over 220 µL/min/mg.
Compound `CN(C)CC1CN(c2cccc3c2C(=O)N(CCc2ccc4ccccc4n2)C3)CCO1` (centres unmarked) [Example 229, 7-(2-Dimethylaminomethyl-morpholin-4-yl)-2-(2-quinolin-2-yl-ethyl)-2,3-dihydro-isoindol-1-one trifluoroacetate] has a microsomal CLint at 0.5 μM [1] of under 100 µL/min/mg and a microsomal CLint at 0.5 μM [2] of under 100 µL/min/mg.
`O=C1c2c(cccc2N2CCOCC2)CN1CCc1nc2ccccn2n1` [Example 231, 7-Morpholin-4-yl-2-(2-[1,2,4]triazolo[1,5-a]pyridin-2-yl-ethyl)-2,3-dihydro-isoindol-1-one] showed a microsomal CLint at 0.5 μM [1] of under 100 µL/min/mg and a microsomal CLint at 0.5 μM [2] of under 100 µL/min/mg.
`O=C1c2c(cccc2N2CCS(=O)(=O)CC2)CN1CCc1nc2ccccn2n1` [Example 232, 7-(1,1-Dioxothiomorpholin-4-yl)-2-(2-[1,2,4]triazolo[1,5-a]pyridin-2-yl-ethyl)-2,3-dihydro-isoindol-1-one] showed a microsomal CLint at 0.5 μM [1] of under 100 µL/min/mg and a microsomal CLint at 0.5 μM [2] of under 100 µL/min/mg.
`CN1CCN(c2cccc3c2C(=O)N(CCc2nc4ccccn4n2)C3)CC1` [Example 233, 7-(4-Methyl-piperazin-1-yl)-2-(2-[1,2,4]triazolo[1,5-a]pyridin-2-yl-ethyl)-2,3-dihydro-isoindol-1-one] gave a microsomal CLint at 0.5 μM [1] of under 100 µL/min/mg and a microsomal CLint at 0.5 μM [2] of under 100 µL/min/mg.
With `COc1ccc(-c2cccc3c2C(=O)N(CCc2cn4ccccc4n2)C3)cc1` [Example 237, 2-(2-Imidazo[1,2-a]pyridin-2-yl-ethyl)-7-(4-methoxy-phenyl)-2,3-dihydro-isoindol-1-one] the microsomal CLint at 0.5 μM [1] was 100 to 220 µL/min/mg and the microsomal CLint at 0.5 μM [2] was 100 to 220 µL/min/mg.
`O=C1c2cccc(-c3ccncc3)c2C(=O)N1CCc1ccc2ccccc2n1` [Example 249, 4-Pyridin-4-yl-2-(2-quinolin-2-yl-ethyl)-isoindole-1,3-dione dihydrochloride] showed a microsomal CLint at 0.5 μM [1] of over 220 µL/min/mg and a microsomal CLint at 0.5 μM [2] of 100 to 220 µL/min/mg.
Work on `CN1CCN(c2cccc3c2C(=O)N(CCc2nc4ccccc4n2C)C3)CC1` [Example 254, 2-[2-(1-Methyl-1H-benzoimidazol-2-yl)-ethyl]-7-(4-methyl-piperazin-1-yl)-2,3-dihydro-isoindol-1-one] yielded a microsomal CLint at 0.5 μM [1] of under 100 µL/min/mg and a microsomal CLint at 0.5 μM [2] of under 100 µL/min/mg.
Work on `COc1ccc(N2CCN(C3CCN(C)CC3)CC2)c2c1CN(CCc1ccc3ccccc3n1)C2=O` [Example 269, 4-Methoxy-7-[4-(1-methyl-piperidin-4-yl)-piperazin-1-yl]-2-(2-quinolin-2-yl-ethyl)-2,3-dihydro-isoindol-1-one di-trifluoroacetate] yielded a microsomal CLint at 0.5 μM [1] of under 100 µL/min/mg and a microsomal CLint at 0.5 μM [2] of under 100 µL/min/mg.
For `CN1CCN(c2ccnc3c2C(=O)N(CCc2cn4ccccc4n2)C3)CC1` [Example 273, 6-(2-Imidazo[1,2-a]pyridin-2-yl-ethyl)-4-(4-methyl-piperazin-1-yl)-6,7-dihydro-pyrrolo[3,4-b]pyridin-5-one], the microsomal CLint at 0.5 μM [1] was under 100 µL/min/mg and the microsomal CLint at 0.5 μM [2] was under 100 µL/min/mg.
`COCC1CN(c2cccc3c2C(=O)N(CCc2ccc4ccccc4n2)C3)CCO1` (centres unmarked) [Example 298, 7-(2-Methoxymethyl-morpholin-4-yl)-2-(2-quinolin-2-yl-ethyl)-2,3-dihydro-isoindol-1-one] gave a microsomal CLint at 0.5 μM [1] of 100 to 220 µL/min/mg and a microsomal CLint at 0.5 μM [2] of 100 to 220 µL/min/mg.
Work on `O=C1c2c(cccc2N2C[C@H]3CCCNC[C@H]3C2)CN1CCc1ccc2ccccc2n1` [Example 318, 7-(3aS,8aS)-Octahydro-pyrrolo[3,4-c]azepin-2-yl-2-(2-quinolin-2-yl-ethyl)-2,3-dihydro-isoindol-1-one trifluoroacetate] yielded a microsomal CLint at 0.5 μM [1] of over 220 µL/min/mg and a microsomal CLint at 0.5 μM [2] of 100 to 220 µL/min/mg.
In the case of `O=C1c2c(-c3cccnc3)ccnc2CN1CCc1cn2ccccc2n1` [Example 358, 6-(2-Imidazo[1,2-a]pyridin-2-yl-ethyl)-4-pyridin-3-yl-6,7-dihydro-pyrrolo[3,4-b]pyridin-5-one], the microsomal CLint at 0.5 μM [1] is reported as under 100 µL/min/mg and the microsomal CLint at 0.5 μM [2] is reported as under 100 µL/min/mg.
Work on `Cn1c(CCN2Cc3nccc(NC4COC4)c3C2=O)nc2ccccc21` [Example 359, 6-[2-(1-Methyl-1H-benzoimidazol-2-yl)-ethyl]-4-(oxetan-3-ylamino)-6,7-dihydro-pyrrolo[3,4-b]pyridin-5-one] yielded a microsomal CLint at 0.5 μM [1] of under 100 µL/min/mg and a microsomal CLint at 0.5 μM [2] of under 100 µL/min/mg.
With `O=C1c2c(NC3COC3)ccnc2CN1CCc1cn2ccccc2n1` [Example 360, 6-(2-Imidazo[1,2-a]pyridin-2-yl-ethyl)-4-(oxetan-3-ylamino)-6,7-dihydro-pyrrolo[3,4-b]pyridin-5-one] the microsomal CLint at 0.5 μM [1] was under 100 µL/min/mg and the microsomal CLint at 0.5 μM [2] was under 100 µL/min/mg.
`COc1ccc(NC2COC2)c2c1CN(CCc1cn3ccccc3n1)C2=O` [Example 362, 2-(2-Imidazo[1,2-a]pyridin-2-yl-ethyl)-4-methoxy-7-(oxetan-3-ylamino)-2,3-dihydro-isoindol-1-one] gave a microsomal CLint at 0.5 μM [1] of under 100 µL/min/mg and a microsomal CLint at 0.5 μM [2] of under 100 µL/min/mg.
With `O=C1c2c(-c3ccncc3)ccnc2CN1CCc1cc2ccccc2o1` [compound 391, 6-[2-(Benzofuran-2-yl)ethyl]-4-(4-pyridyl)-7H-pyrrolo[3,4-b]pyridin-5-one] the microsomal CLint at 0.5 μM [1] was under 100 µL/min/mg and the microsomal CLint at 0.5 μM [2] was under 100 µL/min/mg.
`Cc1nc(CCN2Cc3nccc(-c4ccncc4)c3C2=O)sc1C` [compound 408, 6-[2-(4,5-Dimethylthiazol-2-yl)ethyl]-4-(4-pyridyl)-7H-pyrrolo[3,4-b]pyridin-5-one] gave a microsomal CLint at 0.5 μM [1] of 100 to 220 µL/min/mg and a microsomal CLint at 0.5 μM [2] of under 100 µL/min/mg.

Reference: patent US9938269B2, “Inhibitor compounds of phosphodiesterase type 10A” (ABBVIE INC., priority 2011, dated 2018)
